Assay results from patent US10710978B2, “STK4 inhibitors for treatment of hematologic malignancies” (Dana-Farber Cancer Institute, Inc., priority 2015, dated 2020).
Read-outs that look alike come from different tables or passages of the source.

Columns and labels:
Test in all cases: KiNativ assay
Format in all cases: binding
[1] = system: ABL, ARG; settings: H929 live cell
Procedure: (§1) Biochemical IC50s of the compounds of the present disclosure against various kinases were measured in a KiNativ assay. Compounds were screened in duplicate at 10 μM in H929 live cell. IC50 was measured via Mass spectroscopy (MS).

[2] = biological target: p38a (Homo sapiens (Human), UniProt Q16539); settings: H929 live cell, range class, read-out: % inhibition
In short: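 KiNativ profiling in live H929 cells; single concentration 10 μM, n=2; IC50 from MS measurement.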

[3] = biological target: KHS1 (Homo sapiens (Human), UniProt Q9Y4K4); settings: H929 live cell
Procedure: as §1

[4] = biological target: SRPK2 (Homo sapiens (Human), UniProt P78362); settings: H929 live cell
Chain of SRPK2 (P78362 whole entry): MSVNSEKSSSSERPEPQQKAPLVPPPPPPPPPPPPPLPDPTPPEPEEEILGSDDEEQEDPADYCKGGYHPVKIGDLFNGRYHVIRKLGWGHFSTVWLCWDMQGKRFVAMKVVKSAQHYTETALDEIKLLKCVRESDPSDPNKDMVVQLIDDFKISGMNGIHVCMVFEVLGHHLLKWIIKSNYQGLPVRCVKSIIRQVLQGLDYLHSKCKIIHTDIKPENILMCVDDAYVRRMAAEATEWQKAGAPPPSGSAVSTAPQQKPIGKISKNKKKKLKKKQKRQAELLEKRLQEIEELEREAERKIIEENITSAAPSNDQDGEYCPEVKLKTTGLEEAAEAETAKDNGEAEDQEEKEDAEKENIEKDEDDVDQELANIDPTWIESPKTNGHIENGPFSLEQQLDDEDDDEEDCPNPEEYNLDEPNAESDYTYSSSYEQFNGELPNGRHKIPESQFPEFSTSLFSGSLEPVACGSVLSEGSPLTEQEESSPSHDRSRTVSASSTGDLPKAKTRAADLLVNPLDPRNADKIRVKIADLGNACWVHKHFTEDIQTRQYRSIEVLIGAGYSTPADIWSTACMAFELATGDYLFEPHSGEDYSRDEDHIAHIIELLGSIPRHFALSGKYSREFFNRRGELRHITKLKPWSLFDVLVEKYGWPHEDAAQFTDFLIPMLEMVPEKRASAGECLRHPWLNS
Procedure: as §1

[5] = system: CaMK2a, CaMK2b, CaMK2d, CaMK2g; settings: H929 live cell
Procedure: as §1

[6] = biological target: SRPK1 (Homo sapiens (Human), UniProt Q96SB4); settings: H929 live cell
Procedure: as §1

[7] = biological target: NEK3 (Homo sapiens (Human), UniProt P51956); settings: H929 live cell
Chain of NEK3 (P51956 whole entry): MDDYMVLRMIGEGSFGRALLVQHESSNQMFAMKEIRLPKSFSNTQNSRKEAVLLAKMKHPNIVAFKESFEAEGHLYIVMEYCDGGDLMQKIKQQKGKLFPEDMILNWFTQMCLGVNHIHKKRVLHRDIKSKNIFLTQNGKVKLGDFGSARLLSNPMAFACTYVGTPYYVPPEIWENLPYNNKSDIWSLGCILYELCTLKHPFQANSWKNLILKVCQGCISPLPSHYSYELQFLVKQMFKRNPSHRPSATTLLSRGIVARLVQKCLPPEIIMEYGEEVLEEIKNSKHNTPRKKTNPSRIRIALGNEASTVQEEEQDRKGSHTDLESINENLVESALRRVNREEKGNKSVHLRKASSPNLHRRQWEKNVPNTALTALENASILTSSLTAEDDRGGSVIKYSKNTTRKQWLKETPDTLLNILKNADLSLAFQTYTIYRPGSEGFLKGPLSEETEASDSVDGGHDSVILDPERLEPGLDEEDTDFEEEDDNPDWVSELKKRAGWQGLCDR
Procedure: as §1

[8] = biological target: MAP3K5 (Homo sapiens (Human), UniProt Q99683); settings: H929 live cell
Procedure: as §1

[9] = system: KSR1, KSR2; settings: H929 live cell
Procedure: as §1

[10] = biological target: CDK7 (Homo sapiens (Human), UniProt P50613); settings: H929 live cell
Chain of CDK7 (P50613 whole entry): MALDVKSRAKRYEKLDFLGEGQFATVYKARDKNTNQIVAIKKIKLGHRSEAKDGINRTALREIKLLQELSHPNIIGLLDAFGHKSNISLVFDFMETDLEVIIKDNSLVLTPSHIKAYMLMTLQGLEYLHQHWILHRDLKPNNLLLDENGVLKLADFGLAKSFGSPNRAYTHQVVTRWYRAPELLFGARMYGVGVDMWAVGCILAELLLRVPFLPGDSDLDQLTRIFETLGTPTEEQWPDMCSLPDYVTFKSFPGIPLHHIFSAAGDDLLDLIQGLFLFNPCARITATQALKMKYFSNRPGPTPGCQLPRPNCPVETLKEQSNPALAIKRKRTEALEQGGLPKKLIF
Chain of CDK7 (P51946 whole entry partner): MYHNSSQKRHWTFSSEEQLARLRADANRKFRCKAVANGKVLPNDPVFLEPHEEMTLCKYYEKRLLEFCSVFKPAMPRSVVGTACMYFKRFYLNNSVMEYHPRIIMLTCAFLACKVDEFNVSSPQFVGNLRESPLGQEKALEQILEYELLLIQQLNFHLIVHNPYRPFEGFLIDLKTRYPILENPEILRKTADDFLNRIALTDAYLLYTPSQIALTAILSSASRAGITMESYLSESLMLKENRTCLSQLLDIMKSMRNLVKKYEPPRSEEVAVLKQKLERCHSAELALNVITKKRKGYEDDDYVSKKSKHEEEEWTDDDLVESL
Chain of CDK7 (P51948 whole entry partner): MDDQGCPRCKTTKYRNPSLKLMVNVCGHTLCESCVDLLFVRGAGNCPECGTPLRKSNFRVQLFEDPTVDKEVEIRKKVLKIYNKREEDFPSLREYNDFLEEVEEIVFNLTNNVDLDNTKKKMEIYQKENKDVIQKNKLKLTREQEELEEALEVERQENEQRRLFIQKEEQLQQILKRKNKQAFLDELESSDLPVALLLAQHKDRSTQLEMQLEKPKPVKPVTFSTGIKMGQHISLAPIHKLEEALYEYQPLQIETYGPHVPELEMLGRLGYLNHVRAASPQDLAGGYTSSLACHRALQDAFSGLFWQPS
Procedure: as §1

[11] = biological target: MSK2 domain1 (Homo sapiens (Human), UniProt O75676); settings: H929 live cell
Procedure: as §1

[12] = biological target: PAN3 (Homo sapiens (Human), UniProt Q58A45); settings: H929 live cell
Chain of PAN3 (Q58A45 whole entry): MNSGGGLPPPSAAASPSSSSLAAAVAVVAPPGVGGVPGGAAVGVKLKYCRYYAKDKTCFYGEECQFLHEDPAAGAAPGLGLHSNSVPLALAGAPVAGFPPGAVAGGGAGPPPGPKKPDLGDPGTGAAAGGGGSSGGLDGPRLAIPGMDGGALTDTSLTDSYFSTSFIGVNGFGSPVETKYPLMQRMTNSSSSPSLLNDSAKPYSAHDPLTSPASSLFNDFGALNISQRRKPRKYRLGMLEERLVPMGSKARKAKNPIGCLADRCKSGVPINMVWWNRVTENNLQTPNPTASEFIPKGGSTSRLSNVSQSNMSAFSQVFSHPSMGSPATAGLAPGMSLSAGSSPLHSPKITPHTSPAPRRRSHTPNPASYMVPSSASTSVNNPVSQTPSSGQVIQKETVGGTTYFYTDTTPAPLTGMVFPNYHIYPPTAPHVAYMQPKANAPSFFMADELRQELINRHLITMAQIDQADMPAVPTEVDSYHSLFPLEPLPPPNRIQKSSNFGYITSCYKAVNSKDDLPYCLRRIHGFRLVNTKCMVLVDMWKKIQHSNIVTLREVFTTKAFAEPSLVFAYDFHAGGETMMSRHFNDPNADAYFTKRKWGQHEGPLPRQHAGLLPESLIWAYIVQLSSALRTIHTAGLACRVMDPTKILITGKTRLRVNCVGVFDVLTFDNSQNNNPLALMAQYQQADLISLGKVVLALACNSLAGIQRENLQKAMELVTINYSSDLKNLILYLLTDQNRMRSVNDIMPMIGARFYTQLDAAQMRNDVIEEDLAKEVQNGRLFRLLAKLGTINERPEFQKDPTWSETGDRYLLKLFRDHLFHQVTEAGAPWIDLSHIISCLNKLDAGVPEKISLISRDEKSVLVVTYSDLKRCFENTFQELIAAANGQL
Procedure: as §1

[13] = biological target: JAK1 domain1 (Homo sapiens (Human), UniProt P23458); settings: H929 live cell
Procedure: as §1

[14] = biological target: MSK1 domain1 (Homo sapiens (Human), UniProt O75582); settings: H929 live cell
Procedure: as §1

[15] = biological target: BARK1 (Homo sapiens (Human), UniProt P25098); settings: H929 live cell
Procedure: as §1

[16] = biological target: RSK1 domain2 (Homo sapiens (Human), UniProt Q15418); settings: H929 live cell
Procedure: as §1

[17] = biological target: CaMK1d (Homo sapiens (Human), UniProt Q8IU85); settings: H929 live cell
Procedure: as §1

[18] = biological target: NuaK1 (Homo sapiens (Human), UniProt O60285); settings: H929 live cell
Chain of NuaK1 (O60285 whole entry): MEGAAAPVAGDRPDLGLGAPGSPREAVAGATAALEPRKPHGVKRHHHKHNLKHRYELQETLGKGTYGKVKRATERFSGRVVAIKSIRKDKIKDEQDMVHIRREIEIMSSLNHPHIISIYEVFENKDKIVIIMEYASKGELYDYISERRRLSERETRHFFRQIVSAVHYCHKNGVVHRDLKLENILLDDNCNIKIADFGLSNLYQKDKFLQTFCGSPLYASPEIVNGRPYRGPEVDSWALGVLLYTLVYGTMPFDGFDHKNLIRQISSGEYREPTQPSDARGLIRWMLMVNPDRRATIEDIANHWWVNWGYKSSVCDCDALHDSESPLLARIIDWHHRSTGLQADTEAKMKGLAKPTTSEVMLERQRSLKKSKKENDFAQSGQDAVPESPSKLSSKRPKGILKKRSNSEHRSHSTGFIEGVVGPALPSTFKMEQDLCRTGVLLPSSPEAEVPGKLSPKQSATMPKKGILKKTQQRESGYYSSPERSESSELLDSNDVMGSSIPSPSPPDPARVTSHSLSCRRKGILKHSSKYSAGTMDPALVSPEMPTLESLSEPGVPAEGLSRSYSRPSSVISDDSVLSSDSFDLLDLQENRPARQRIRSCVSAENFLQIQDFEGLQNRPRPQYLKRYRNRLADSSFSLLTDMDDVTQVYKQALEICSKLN
Procedure: as §1

[19] = biological target: MAP3K4 (Homo sapiens (Human), UniProt Q9Y6R4); settings: H929 live cell
Procedure: as §1

[20] = system: MARK2, MARK3; settings: H929 live cell
Procedure: as §1

[21] = biological target: PIK3C3 (Homo sapiens (Human), UniProt Q8NEB9); settings: H929 live cell
Procedure: as §1

[22] = biological target: PRP4 (Homo sapiens (Human), UniProt Q13523); settings: H929 live cell
Procedure: as §1

[23] = system: FYN, SRC, YES; settings: H929 live cell
Procedure: as §1

[24] = biological target: p70S6Kb (Homo sapiens (Human), UniProt Q9UBS0); settings: H929 live cell
Procedure: as §1

[25] = biological target: AKT1 (Homo sapiens (Human), UniProt P31749); settings: H929 live cell
Procedure: as §1

[26] = biological target: CSK (Homo sapiens (Human), UniProt P41240); settings: H929 live cell
Chain of CSK (P41240 whole entry): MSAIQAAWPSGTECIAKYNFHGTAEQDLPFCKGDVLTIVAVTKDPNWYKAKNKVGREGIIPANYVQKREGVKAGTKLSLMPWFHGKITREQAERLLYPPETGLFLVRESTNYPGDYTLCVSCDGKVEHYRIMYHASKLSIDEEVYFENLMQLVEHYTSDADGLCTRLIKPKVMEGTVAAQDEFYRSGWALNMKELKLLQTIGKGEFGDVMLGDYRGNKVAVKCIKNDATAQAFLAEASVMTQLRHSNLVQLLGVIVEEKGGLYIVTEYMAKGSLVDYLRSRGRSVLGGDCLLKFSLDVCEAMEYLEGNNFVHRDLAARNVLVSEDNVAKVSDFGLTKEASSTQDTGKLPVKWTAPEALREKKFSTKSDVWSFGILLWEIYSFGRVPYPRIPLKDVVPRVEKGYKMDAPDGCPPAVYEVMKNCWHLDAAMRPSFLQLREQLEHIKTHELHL
Procedure: as §1

[27] = biological target: MAP2K6 (Homo sapiens (Human), UniProt P52564); settings: H929 live cell
Procedure: as §1

[28] = biological target: GCK (Homo sapiens (Human), UniProt Q12851); settings: H929 live cell
Procedure: as §1

[29] = biological target: PKCi (Homo sapiens (Human), UniProt P41743); settings: H929 live cell
Procedure: as §1

[30] = biological target: IRAK1 (Homo sapiens (Human), UniProt P51617); settings: H929 live cell
Chain of IRAK1 (P51617 whole entry): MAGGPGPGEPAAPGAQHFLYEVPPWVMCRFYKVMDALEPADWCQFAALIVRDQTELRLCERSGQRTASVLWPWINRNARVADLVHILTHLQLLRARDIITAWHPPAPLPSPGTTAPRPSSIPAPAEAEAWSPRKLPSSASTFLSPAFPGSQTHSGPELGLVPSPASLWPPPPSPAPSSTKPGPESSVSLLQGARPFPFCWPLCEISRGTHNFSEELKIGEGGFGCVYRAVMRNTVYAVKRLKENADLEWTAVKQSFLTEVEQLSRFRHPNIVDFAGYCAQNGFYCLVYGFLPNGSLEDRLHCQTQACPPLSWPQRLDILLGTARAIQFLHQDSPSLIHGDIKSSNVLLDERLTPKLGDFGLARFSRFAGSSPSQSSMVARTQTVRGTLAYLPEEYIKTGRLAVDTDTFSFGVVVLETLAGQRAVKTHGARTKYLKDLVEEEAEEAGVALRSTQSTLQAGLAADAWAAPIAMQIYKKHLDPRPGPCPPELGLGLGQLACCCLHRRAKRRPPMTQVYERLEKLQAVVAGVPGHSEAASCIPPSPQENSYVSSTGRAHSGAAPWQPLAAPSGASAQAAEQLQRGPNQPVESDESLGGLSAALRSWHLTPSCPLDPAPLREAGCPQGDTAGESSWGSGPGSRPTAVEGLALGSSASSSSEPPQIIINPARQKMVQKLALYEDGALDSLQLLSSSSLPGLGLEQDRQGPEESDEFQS
Procedure: as §1

[31] = biological target: MAP3K1 (Homo sapiens (Human), UniProt Q13233); settings: H929 live cell
Procedure: as §1

[32] = biological target: TAO2 (Homo sapiens (Human), UniProt Q9UL54); settings: H929 live cell
Procedure: as §1

[33] = biological target: PIK3CG (Homo sapiens (Human), UniProt P48736); settings: H929 live cell
Procedure: as §1

[34] = range class, read-out: % inhibition

Nc1ncc(-c2ccc(NS(=O)(=O)C3CC3)cc2OC2CCCCC2)cc1-c1ccc2c(c1)CCNC2=O [Compound I-65, N-(4-(6-amino-5-(1-oxo-1,2,3,4-tetrahydroisoquinolin-6-yl)pyridin-3-yl)-3-(cyclohexyloxy)phenyl) cyclopropanesulfonamide]
% inhibition ([1]; 10 μM, range class): 0.0%
inhibition (10 μM) [1]: −2.8%
inhibition at 10 µM [2]: 0%
inhibition at 10 µM [3, 34]: 50 to 75%
inhibition at 10 µM ([3]; read-out: inhibition (10 μM)): 73.3%
inhibition at 10 µM [4, 34]: 0%
inhibition at 10 µM ([4]; read-out: inhibition (10 μM)): -29.4%
% inhibition ([5]; 10 μM, range class): 0.0%
inhibition (10 μM) [5]: 12.8%
inhibition at 10 µM [6, 34]: 0%
inhibition at 10 µM ([6]; read-out: inhibition (10 μM)): -25.4%
inhibition at 10 µM [7, 34]: 0%
inhibition at 10 µM ([7]; read-out: inhibition (10 μM)): -18.4%
inhibition at 10 µM [8, 34]: 0%
inhibition at 10 µM ([8]; read-out: inhibition (10 μM)): -12.4%
% inhibition ([9]; 10 μM, range class): 0.0%
inhibition (10 μM) [9]: −5.7%
inhibition at 10 µM [10, 34]: 0%
inhibition at 10 µM ([10]; read-out: inhibition (10 μM)): 29.9%
inhibition at 10 µM [11, 34]: 0%
inhibition at 10 µM ([11]; read-out: inhibition (10 μM)): -83.6%
inhibition at 10 µM [12, 34]: 0%
inhibition at 10 µM ([12]; read-out: inhibition (10 μM)): 5.8%
inhibition at 10 µM [13, 34]: 0%
inhibition at 10 µM ([13]; read-out: inhibition (10 μM)): 2.1%
inhibition at 10 µM [14, 34]: 0%
inhibition at 10 µM ([14]; read-out: inhibition (10 μM)): -52.5%
inhibition at 10 µM [15, 34]: 0%
inhibition at 10 µM ([15]; read-out: inhibition (10 μM)): 3.9%
inhibition at 10 µM [16, 34]: 0%
inhibition at 10 µM ([16]; read-out: inhibition (10 μM)): -0.7%
inhibition at 10 µM [17, 34]: 0%
inhibition at 10 µM ([17]; read-out: inhibition (10 μM)): 0.4%
inhibition (10 μM) [18]: 61.5%
inhibition at 10 µM [18, 34]: 50 to 75%
inhibition at 10 µM ([18]; read-out: inhibition (10 μM)): 66.8%
inhibition at 10 µM [19, 34]: 0%
inhibition at 10 µM ([19]; read-out: inhibition (10 μM)): 10.3%
% inhibition ([20]; 10 μM, range class): 0.0%
inhibition (10 μM) [20]: −17.2%
inhibition at 10 µM [21, 34]: 0%
inhibition at 10 µM ([21]; read-out: inhibition (10 μM)): -15%
inhibition at 10 µM [22, 34]: 0%
inhibition at 10 µM ([22]; read-out: inhibition (10 μM)): -19.3%
% inhibition ([23]; 10 μM, range class): 0.0%
inhibition (10 μM) [23]: −8.4%
inhibition at 10 µM [24, 34]: 0%
inhibition at 10 µM ([24]; read-out: inhibition (10 μM)): 32%
inhibition at 10 µM [25, 34]: 0%
inhibition at 10 µM ([25]; read-out: inhibition (10 μM)): 1.6%
inhibition at 10 µM [26, 34]: 0%
inhibition at 10 µM ([26]; read-out: inhibition (10 μM)): 0.1%
inhibition at 10 µM [27, 34]: 0%
inhibition at 10 µM ([27]; read-out: inhibition (10 μM)): -15%
inhibition at 10 µM [28, 34]: > 90%
inhibition at 10 µM ([28]; read-out: inhibition (10 μM)): 92.5%
inhibition at 10 µM [29, 34]: 0%
inhibition at 10 µM ([29]; read-out: inhibition (10 μM)): -41.2%
inhibition at 10 µM [30, 34]: 0%
inhibition at 10 µM ([30]; read-out: inhibition (10 μM)): 27.8%
inhibition at 10 µM [31, 34]: 35 to 40%
inhibition at 10 µM ([31]; read-out: inhibition (10 μM)): 48.5%
inhibition at 10 µM [32, 34]: 0%
inhibition at 10 µM ([32]; read-out: inhibition (10 μM)): 8.3%
inhibition at 10 µM [33, 34]: 0%
inhibition at 10 µM ([33]; read-out: inhibition (10 μM)): -64%
